Data: PubChem BioAssay AID2060497 (Molecular Pharmacology Branch, DTP, NCI, 2025)
“And” between values parts separate entries of the source, which are not always exact repeats. Equal entries are not always repeated.

System: 317291-083-R-J1-PDC complex spheroids, viability
Experiment: Anticancer human tumor 317291-083-R-J1-PDC patient-derived soft tissue sarcoma cell line growth inhibition [GQUAD]
Settings: for viability, T/C: stronger effect = lower value
Text: DNA G-quadruplex Stabilizer Agents in Combinations in Complex Spheroids
A high-throughput screen of multi-cell type tumor spheroids was designed to identify active combinations of DNA G-quadruplex stabilizer agents and targeted small molecules. Complex spheroids include a stromal component modeled by human endothelial cells (HUVEC) and fibroblasts modeled by human mesenchymal stem cells (MSCs). The concentration ranges selected for each drug and investigational agent were based upon clinically achievable concentrations if the clinical Cmax of the agent was known.
Compounds. The drugs and investigational agents: pidnarulex (CX-5461; NSC782164), APTO-253 (NSC789042), BRACO-19 (NSC847499), peposertib (NSC802822), ceralasertib (NSC780249), elimusertib (NSC800525), camonsertib (NSC841442), AZD-1390 (NSC803789), olaparib (NSC753686), talazoparib (NSC767125), ART-558 (NSC835418), sotorasib (NSC818433), MRTX-1133 (NSC836407), SN-38 (NSC673596), topotecan (NSC609699), etoposide (NSC141540), doxorubicin (NSC123127), gemcitabine (NSC613327), 5-fluorouracil (NSC19893), paclitaxel (NSC125973), vemurafenib (NSC761431), panobinostat (NSC761190), R-306465 (JNJ-16241199; NSC773264), adavosertib (NSC754352), TP-3654 (NSC805149), carboplatin (NSC241240), KSQ-4279 (NSC840948), and staurosporine (NSC755774) were obtained from the National Cancer Institute (NCI) Developmental Therapeutics Program Chemical Repository (34). The FDA-approved anticancer drug set is available from the NCI Developmental Therapeutics Program. […] The stock solutions were prepared in dimethyl sulfoxide (DMSO, Sigma-Aldrich, St. Louis, MO, cat. D2650) at 800-fold the tested concentration and stored at -70 degrees C prior to their use. All drugs and investigational agents were tested over a range starting from a high concentration at or near the clinical Cmax and decreasing in half-log increments. If the clinical Cmax for an agent had not been determined, the highest concentration tested was 10 microM.
2.3 Cell Culture. All cells were maintained in an incubator at 37 degrees C and 5% CO2 with 95% humidity. The PDC lines were cultured according to standard operating procedures established by the NCI PDMR. All PDCs were thawed and cultured in Matrigel-coated flasks prepared with a working solution of 1X Ham's F-12 nutrient mix, without supplementation (Invitrogen, cat. 11765054), 100 U/mL penicillin-streptomycin (Invitrogen, cat. 15140122), and 2.5% Matrigel (Corning Inc., cat. 354248) for the first three passages. The 857933-349-R-J2-PDC line was cultured in 6C/Colon 1B media, which includes advanced DMEM/F-12 (Thermo Fisher Scientific, cat. 12634028), 10 mM HEPES (Thermo Fisher Scientific, cat. 15630080), 1X GlutaMAX supplement (Thermo Fisher Scientific, cat. 35050061), 0.1 mg/mL primocin (InvivoGen, cat. ant-pm-2), 10% defined fetal bovine serum, heat inactivated (HyClone Laboratories Inc., cat. SH30070.03HI), 50% L-WRN conditioned media (ATCC, cat. CRL-3276), 1.25 mM N-Acetyl-L-cysteine (Sigma-Aldrich, cat. A9165), 10 mM nicotinamide (Sigma-Aldrich, cat. N0636), 1X B-27 supplement (Thermo Fisher Scientific, cat. 17504044), 1X N-2 supplement (Thermo Fisher Scientific, cat. 17502048), 10 microM Y-27632 dihydrochloride (Tocris Bioscience, cat. 1254), and 50 ng/mL human EGF recombinant protein (Thermo Fisher Scientific, cat. PHG0311). The 485176-168-R4-J1-PDC line was cultured in Panc media, which includes all 6C/Colon 1B media components plus 100 ng/mL human FGF-10 (Thermo Fisher Scientific, cat. 100-26), 500 nM SB-431542 (Selleckchem, cat. S1067), and gastrin (Tocris, cat. 3006).
[…]
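Also: spheroids exposed to compounds for one week before readout.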
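For viability, T/C in this document: percent viability relative to DMSO vehicle wells taken as 100%.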

CC[C@@]1(O)C(=O)OCc2c1cc1n(c2=O)Cc2cc3c(CN(C)C)c(O)ccc3nc2-1
viability, T/C (compound 0.000999 µM): 116% and 105% and 101% | viability, T/C (compound 0.00316 µM): 84% and 86.8% and 104% | viability, T/C (compound 0.00999 µM): 94.2% and 83.8% and 102% | viability, T/C (compound 0.0316 µM): 70.6% and 71.7% and 80.6% | viability, T/C (compound 0.0999 µM): 22.3% and 25% and 25.1% | viability, T/C (compound 0.316 µM): 14% and 20.4% and 10.5% | IC50 (curve of compound): 51.5 nM and 53.9 nM and 59.7 nM

O=C(c1cc(Cc2n[nH]c(=O)c3ccccc23)ccc1F)N1CCN(C(=O)C2CC2)CC1
viability, T/C (compound 0.0316 µM): 111% and 115% and 109% | viability, T/C (compound 0.1 µM): 96.5% and 83.9% and 97.3% | viability, T/C (compound 0.316 µM): 120% and 96.5% and 93.9% | viability, T/C (compound 1 µM): 88.7% and 107% and 99.4% | viability, T/C (compound 3.16 µM): 87.6% and 84.9% and 93.7% | viability, T/C (compound 10 µM): 71% and 58.2% and 59.2% | IC50 (curve of compound): > 10000 nM

CC1COCCN1c1cc(C2(O)CC3CCC(C2)O3)c2cnn(-c3ccn[nH]3)c2n1 (stereo not given) + CN(C)c1ccc(Nc2c3ccc(NC(=O)CCN4CCCC4)cc3nc3cc(NC(=O)CCN4CCCC4)ccc23)cc1
IC50 (curve of first compound, second compound 0.0316 µM): 37.1 nM | IC50 (curve of first compound, second compound 0.1 µM): < 31.6 nM | IC50 (curve of first compound, second compound 0.316 µM): < 31.6 nM | IC50 (curve of first compound, second compound 1 µM): < 31.6 nM | IC50 (curve of first compound, second compound 3.16 µM): < 31.6 nM | IC50 (curve of first compound, second compound 10 µM): < 31.6 nM | viability, T/C (second compound 0.0316 µM, first compound 0.0316 µM): 54.7% | viability, T/C (second compound 0.0316 µM, first compound 0.1 µM): 21.6% | viability, T/C (second compound 0.0316 µM, first compound 0.316 µM): 16.4% | viability, T/C (second compound 0.0316 µM, first compound 1 µM): 16.2% | viability, T/C (second compound 0.0316 µM, first compound 3.16 µM): 12.9% | viability, T/C (second compound 0.0316 µM, first compound 10 µM): 2.01% | viability, T/C (second compound 0.1 µM, first compound 0.0316 µM): 50.5% | viability, T/C (second compound 0.1 µM, first compound 0.1 µM): 25.5% | viability, T/C (second compound 0.1 µM, first compound 0.316 µM): 18.2% | viability, T/C (second compound 0.1 µM, first compound 1 µM): 15.3% | viability, T/C (second compound 0.1 µM, first compound 3.16 µM): 11.1% | viability, T/C (second compound 0.1 µM, first compound 10 µM): 3.17% | viability, T/C (second compound 0.316 µM, first compound 0.0316 µM): 44.2% | viability, T/C (second compound 0.316 µM, first compound 0.1 µM): 17.4% | viability, T/C (second compound 0.316 µM, first compound 0.316 µM): 12.6% | viability, T/C (second compound 0.316 µM, first compound 1 µM): 12.1% | viability, T/C (second compound 0.316 µM, first compound 3.16 µM): 12.8% | viability, T/C (second compound 0.316 µM, first compound 10 µM): 2.37% | viability, T/C (second compound 1 µM, first compound 0.0316 µM): 23.5% | viability, T/C (second compound 1 µM, first compound 0.1 µM): 10.9% | viability, T/C (second compound 1 µM, first compound 0.316 µM): 8.42% | viability, T/C (second compound 1 µM, first compound 1 µM): 5.55% | viability, T/C (second compound 1 µM, first compound 3.16 µM): 7.51% | viability, T/C (second compound 1 µM, first compound 10 µM): 1.2% | viability, T/C (second compound 3.16 µM, first compound 0.0316 µM): 15.1% | viability, T/C (second compound 3.16 µM, first compound 0.1 µM): 9.28% | viability, T/C (second compound 3.16 µM, first compound 0.316 µM): 6% | viability, T/C (second compound 3.16 µM, first compound 1 µM): 3.23% | viability, T/C (second compound 3.16 µM, first compound 3.16 µM): 4.27% | viability, T/C (second compound 3.16 µM, first compound 10 µM): 0.57% | viability, T/C (second compound 10 µM, first compound 0.0316 µM): 4.09% | viability, T/C (second compound 10 µM, first compound 0.1 µM): 3.93% | viability, T/C (second compound 10 µM, first compound 0.316 µM): 2.46% | viability, T/C (second compound 10 µM, first compound 1 µM): 2.16% | viability, T/C (second compound 10 µM, first compound 3.16 µM): 2.2% | viability, T/C (second compound 10 µM, first compound 10 µM): 0.34%

CCc1c2c(nc3ccc(O)cc13)-c1cc3c(c(=O)n1C2)COC(=O)[C@]3(O)CC
viability, T/C (compound 0.000999 µM): 67.6% and 68.7% and 66.8% | viability, T/C (compound 0.00316 µM): 24.9% and 26.7% and 19.9% | viability, T/C (compound 0.00999 µM): 13% and 18.2% and 10.6% | viability, T/C (compound 0.0316 µM): 12.7% and 11.9% and 9.88% | viability, T/C (compound 0.0999 µM): 8.64% and 6.96% and 7.26% | viability, T/C (compound 0.316 µM): 4.6% and 5.68% and 4.03% | IC50 (curve of compound): 1.61 nM and 1.72 nM and 1.51 nM

Cc1[nH]c2ccccc2c1CCNCc1ccc(/C=C/C(=O)NO)cc1
viability, T/C (compound 0.000999 µM): 108% and 109% and 114% | viability, T/C (compound 0.00316 µM): 92% and 89.5% and 96.1% | viability, T/C (compound 0.00999 µM): 106% and 110% and 105% | viability, T/C (compound 0.0316 µM): 62.6% and 80.2% and 99% | viability, T/C (compound 0.0999 µM): 8.77% and 22.1% and 21.3% | viability, T/C (compound 0.316 µM): 0.25% and 0.09% and 0.84% | IC50 (curve of compound): 41.4 nM and 57.9 nM and 65.3 nM
